Reference: US8816135B2, “Trisphenol compound” (Honshu Chemical Industry Co., Ltd., priority 2009, dated 2014)

Experiments:
[1] = Measurement of glass transition temperature by differential scanning calorimeter; format: physicochemical; settings: DSC, melted compound cooled and heated again, 10.0° C./min.
Method: Each compound was heated to a temperature 20° C. higher than the melting point of the compound in crystal form using a differential scanning calorimeter, and the melted compound was cooled and then heated again to measure the glass transition point. The measurement conditions were 40° C. as the temperature at which to start measurement, the melting point+20° C. as the temperature at which to end measurement, and 10.0° C./min. as the rate of heating.

[2] = Measurement of solubility in solvent (propyleneglycolmonomethylether acetate); settings: 28° C., largest amount that dissolved completely, added in 1 g steps to 10 g of solvent
Method: As for solubility, 10 g of propyleneglycolmonomethylether acetate was put in a container and 1 g of trisphenol compound was added while keeping the temperature at 28° C., and the mixture was agitated for 10 minutes to check for complete dissolution of the compound. […] The solubility (amount in grams per 100 g of solvent) was calculated from the largest amount of compound in grams that dissolved completely.

| Structure (SMILES) | Glass transition temperature [1] | melting point | Solubility [2] |
| --- | --- | --- | --- |
| CC(C)(c1ccc(O)cc1)c1ccc(C(C)(c2ccc(O)cc2)c2ccc(O)cc2)cc1 [Comparative Example, 1-[α-methyl-α-(4-hydroxyphenyl)ethyl]-4-[α,α-bis(4-hydroxyphenyl)ethyl]benzene, reference compound] | 96 °C | – | – |
| CC(c1ccc(O)cc1)(c1ccc(O)cc1)c1ccc(-c2ccc(O)cc2)cc1 [Example 1, 1-[4-(4-hydroxyphenyl)phenyl]-1,1-bis(4-hydroxyphenyl)ethane] | – | 198 °C | 40 g/100 g of propyleneglycolmonomethylether acetate |
| Cc1cc(C(C)(c2ccc(-c3ccc(O)cc3)cc2)c2cc(C)c(O)c(C)c2)cc(C)c1O [Example 3, 1-[4-(4-hydroxyphenyl)phenyl]-1,1-bis(4-hydroxy-3,5-dimethylphenyl)ethane] | 104 °C | 231 °C | 10 g/100 g of propyleneglycolmonomethylether acetate |
